Experiments:
[1] = target: T1, complex of human CDK4 and cyclin D3 (Homo sapiens, UniProt P11802); experiment: Inhibition of CDK4/cyclin D retinoblastoma kinase activity (D-type cyclin is D3); assay type: biochemical; details: superscript a: D-type cyclin is D3; apparent Ki; read-out: Ki CDK 4/D
T1 construct: made in house; host or cells: insect cells, co-infected with baculovirus
Procedure, shortened: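 Radiometric assay: [32P]- or [33P]ATP phosphate incorporation into Rb substrate at 30°C for 20 min, stopped with EDTA, filter-captured and phosphorimaged.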

SW-480 = experiment: Inhibition of cell growth, MTT assay, SW-480; assay type: cell-based; details: Homo sapiens, SW480, SW-480, MTT assay
Experimental: Inhibition of cell growth was measured using the tetrazolium salt assay, which is based on the ability of viable cells to reduce 3-(4,5-dimethylthiazol-2-yl)-2,5-[2H]-diphenyltetrazolium bromide (MTT) to formazan (Mossman, Journal of Immunological Methods, vol. 65 (1983), pp. 55-58). The water-insoluble purple formazan product was then detected spectrophotometrically. Various cell lines (HCT-116, Saos-2, U2-OS, SW480, COLO-205, RXF-393, M14, MDA-MB-468, and MCF7) were grown in 96-well plates. Cells were plated in the appropriate medium at a volume of 135 μl/well in either McCoy's 5A Medium (for Saos-2, U2-OS, SW480, and HCT-116 cells), RPMI (for COLO-205, RXF-393, M14 cells), or Minimum Essential Medium Eagle (for MDA-MB-468 and MCF7 cells). Plates were incubated for four hours before addition of inhibitor compounds. Different concentrations of inhibitor compounds were added in 0.5% (v/v) dimethylsulfoxide (15 μL/well), and cells were incubated at 37° C. (5% CO2) for four to six days (depending on cell type). At the end of the incubation, MTT was added to a final concentration of 0.2 mg/mL, and cells were incubated for 4 hours more at 37° C. After centrifugation of the plates and removal of medium, the absorbance of the formazan (solubilized in dimethylsulfoxide) was measured at 540 nm. […] All results were compared to control cells treated only with 0.5% (v/v) dimethylsulfoxide.

[2] = target: T2, human CDK1 (cdc2) and cyclin B (Homo sapiens, UniProt P06493); experiment: Inhibition of CDK1(cdc2)/cyclin B histone H1 kinase activity; assay type: biochemical; details: read-out: Ki CDK 1/B
T2 construct: purchased New England Biolabs (Beverly Mass.)
T2 sequence (P06493 whole entry): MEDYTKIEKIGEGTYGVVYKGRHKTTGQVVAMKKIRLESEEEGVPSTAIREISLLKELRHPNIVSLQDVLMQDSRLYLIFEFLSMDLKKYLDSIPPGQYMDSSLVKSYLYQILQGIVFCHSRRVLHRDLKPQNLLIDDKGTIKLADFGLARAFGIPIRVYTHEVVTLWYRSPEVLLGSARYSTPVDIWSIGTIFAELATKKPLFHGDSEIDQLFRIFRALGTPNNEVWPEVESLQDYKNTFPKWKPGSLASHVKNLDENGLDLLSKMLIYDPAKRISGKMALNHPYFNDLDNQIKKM
T2 sequence (P14635 whole entry partner): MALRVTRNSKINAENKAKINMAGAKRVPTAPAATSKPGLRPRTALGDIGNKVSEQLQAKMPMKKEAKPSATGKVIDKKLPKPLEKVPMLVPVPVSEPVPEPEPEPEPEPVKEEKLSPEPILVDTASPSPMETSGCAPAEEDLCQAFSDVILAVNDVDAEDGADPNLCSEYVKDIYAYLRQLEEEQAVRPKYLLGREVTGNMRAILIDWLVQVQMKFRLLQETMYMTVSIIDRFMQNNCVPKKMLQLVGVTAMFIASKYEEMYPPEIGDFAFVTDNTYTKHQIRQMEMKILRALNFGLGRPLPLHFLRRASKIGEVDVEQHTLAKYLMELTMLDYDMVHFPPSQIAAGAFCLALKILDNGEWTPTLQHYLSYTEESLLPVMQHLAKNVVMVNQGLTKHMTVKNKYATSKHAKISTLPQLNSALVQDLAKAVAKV
Experimental: Cyclin-dependent kinase activity was measured by quantifying the enzyme-catalyzed, time-dependent incorporation of radioactive phosphate from [^32P]ATP or [^33P]ATP into a protein substrate. Unless noted otherwise, assays were performed in 96-well plates in a total volume of 50 μL, in the presence of 10 mM HEPES (N-[2-hydroxyethyl]piperazine-N′-[2-ethanesulfonic acid]) (pH 7.4), 10 mM MgCl2, 25 μM adenosine triphosphate (ATP), 1 mg/mL ovalbumin, 5 μg/mL leupeptin, 1 mM dithiothreitol, 10 mM β-glycerophosphate, 0.1 mM sodium vanadate, 1 mM sodium fluoride, 2.5 mM ethylene glycol-bis(β-aminoethyl ether)-N,N,N′N′-tetraacetic acid (EGTA), 2% (v/v) dimethylsulfoxide, and 0.03-0.4 μCi [^32/33P]ATP per reaction. Reactions were initiated with enzyme, incubated at 30° C., and terminated after 20 minutes by the addition of ethylenediaminetetraacetic acid (EDTA) to 250 mM. The phosphorylated substrate was then captured on a nitrocellulose or phosphocellulose membrane using a 96-well filtration manifold, and unincorporated radioactivity was removed by repeated washing with 0.85% phosphoric acid. Radioactivity was quantified by exposing the dried membranes to a phosphorimager.
Apparent Ki values were measured by assaying enzyme activity in the presence of different inhibitor compound concentrations and subtracting the background radioactivity measured in the absence of enzyme. The kinetic parameters (kcat, Km for ATP) were measured for each enzyme under the usual assay conditions by determining the dependence of initial rates on ATP concentration. Inhibition data were fit to an equation for competitive inhibition using Kaleidagraph (Synergy Software), or were fit to an equation for competitive tight-binding inhibition using the software KineTic (BioKin, Ltd.).
The complex of human CDK1 (cdc2) and cyclin B was purchased from New England Biolabs (Beverly Mass.). Alternatively, a CDK1/glutathione-S-transferase-cyclin B1 complex was purified using glutathione affinity chromatography from insect cells that had been co-infected with the corresponding baculovirus expression vectors. The assay was executed as described above at 30° C. using 2.5 units of cdc2/cyclin B, 10 μg Histone H1 protein, and 0.1-0.3 μCi [^32/33P]ATP per assay. Phosphorylated histone substrate was captured by microfiltration on a phosphocellulose P81 membrane and quantified using a phosphorimager as described above. Ki values were measured using the described curve-fitting programs.

HCT116 = experiment: Inhibition of cell growth, MTT assay, HCT116; assay type: cell-based, human; details: for inhibition at 30 µM: HCT-116, at 30 μM; for IC50 / IC90: HCT-116
Procedure, shortened: (§1)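 Cells rested 4 h after plating, then exposed to graded compound concentrations in 0.5% (v/v) DMSO for four to six days (cell-type dependent) at 37° C, 5% CO2. Viability was read by MTT (0.2 mg/mL final, 4 h at 37° C), with DMSO-solubilized formazan measured at 540 nm.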

CDK2/cyclin A = target: T3, CDK2/cyclin A (Homo sapiens, UniProt P24941); experiment: Inhibition of CDK2/cyclin A retinoblastoma kinase activity; assay type: biochemical; details: read-out: Ki CDK 2/A
T3 construct: made in house; host or cells: CDK2: insect cells (baculovirus); cyclin A: E. coli, then limited proteolysis
Procedure, shortened: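 Baculovirus-expressed CDK2 with excess proteolyzed cyclin A (or purified complex), 150 nM or 5 nM, phosphorylating an Rb fragment with 25 μM [32/33P]ATP, pH 7.4, 30° C, 20 min. Filter-captured radioactivity by phosphorimager; apparent Ki from fits to competitive or tight-binding competitive inhibition using measured ATP Km.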

Saos-2 = experiment: Inhibition of cell growth, MTT assay, Saos-2; assay type: cell-based; details: Homo sapiens; Saos-2, MTT assay
Procedure, shortened: as §1

U2-OS = experiment: Inhibition of cell growth, MTT assay, U2-OS; assay type: cell-based; details: for IC50 / IC90: Homo sapiens, U2OS
Procedure, shortened: as §1

T1 sequence (P11802 whole entry): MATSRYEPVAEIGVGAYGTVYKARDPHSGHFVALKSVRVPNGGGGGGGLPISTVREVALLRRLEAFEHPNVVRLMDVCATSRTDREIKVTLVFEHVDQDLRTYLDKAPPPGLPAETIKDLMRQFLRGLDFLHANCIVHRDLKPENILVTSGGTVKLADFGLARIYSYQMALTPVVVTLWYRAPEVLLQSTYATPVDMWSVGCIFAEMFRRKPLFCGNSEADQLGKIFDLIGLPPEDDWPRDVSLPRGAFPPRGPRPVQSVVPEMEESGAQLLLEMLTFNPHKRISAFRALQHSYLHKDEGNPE
T1 sequence (P30281 whole entry partner): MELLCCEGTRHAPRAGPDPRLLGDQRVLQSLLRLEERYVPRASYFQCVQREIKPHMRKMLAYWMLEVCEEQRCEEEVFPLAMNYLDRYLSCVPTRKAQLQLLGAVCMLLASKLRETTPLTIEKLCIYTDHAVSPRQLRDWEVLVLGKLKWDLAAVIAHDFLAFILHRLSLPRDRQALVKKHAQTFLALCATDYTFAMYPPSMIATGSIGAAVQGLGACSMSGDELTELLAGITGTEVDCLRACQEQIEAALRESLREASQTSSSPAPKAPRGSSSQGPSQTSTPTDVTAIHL

Row | Structure (SMILES) | Ki [1] | inhibition at 30 µM (SW-480) | Ki [2] | inhibition at 10 µM (HCT116; Homo sapiens, HCT-116, at 10 μM) | inhibition at 30 µM (HCT116; Homo sapiens) | Ki (CDK2/cyclin A) | IC50 (SW-480) | IC90 (SW-480) | IC50 (HCT116; Homo sapiens) | IC90 (HCT116; Homo sapiens) | inhibition at 10 µM (SW-480; at 10 μM) | IC50 (Saos-2) | IC90 (Saos-2) | IC50 (U2-OS) | IC90 (U2-OS) | % inhibition of growth in parentheses after >25 (U2-OS; concentration not given) | % inhibition of growth in parentheses after >25 (HCT116; concentration not given)
1 | Nc1nc(Nc2ccc(C(=O)O)cc2)sc1C(=O)c1ccccc1[N+](=O)[O-] [E(1), 4-[4-Amino-5-(2-nitro-benzoyl)-thiazol-2-ylamino]-benzoic Acid] | 420 nM | 23% | 30 nM | 17% | 17% | 320 nM |  |  |  |  |  |  |  |  |  |  | 
2 | Nc1nc(Nc2ccc3nc[nH]c3c2)sc1C(=O)c1ccccc1[N+](=O)[O-] [A(9), [4-Amino-2-(1H-benzoimidazol-6-yl-amino)-thiazol-5-yl]-(2-nitro-phenyl)-methanone] | 100 nM |  | 53 nM |  |  | 230 nM | 4000 nM | 10000 nM | 20000 nM | 30000 nM |  |  |  |  |  |  | 
3 | Nc1nc(Nc2ccccc2)sc1C(=O)c1ccccn1 [A(4), (4-Amino-2-phenylamino-thiazol-5-yl)-pyridin-2-yl-methanone] | 2000 nM | 66% | 2700 nM |  | 29% | 3100 nM |  |  |  |  | 0% |  |  |  |  |  | 
4 | Nc1nc(NCCc2ccccc2)sc1C(=O)c1ccccc1[N+](=O)[O-] [C(5), (4-Amino-2-phenethylamino-thiazol-5-yl)-(2-nitro-phenyl)-methanone] | 140 nM |  | 293 nM |  |  | 780 nM | 3000 nM | 9000 nM | 6000 nM | 25000 nM |  |  |  |  |  |  | 
5 | CCOC(=O)c1ccc(Nc2nc(N)c(C(=O)c3ccccc3[N+](=O)[O-])s2)cc1 [A(5), Ethyl 4-[4-Amino-5-(2-nitro-benzoyl)-thiazol-2-ylamino]-benzoate] | 97 nM |  | 163 nM |  | 85% | 690 nM | 1700 nM | 3000 nM | 26000 nM |  |  |  |  |  |  |  | 
6 | CN(C)c1ccc(Nc2nc(N)c(C(=O)c3ccccc3[N+](=O)[O-])s2)cc1 [C(4), [4-Amino-2-(4-dimethylamino-phenylamino)-thiazol-5-yl]-(2-nitro-phenyl)-methanone] | 95 nM |  | 90 nM |  |  | 810 nM | 400 nM | 3000 nM | 700 nM | 30000 nM |  |  |  |  |  |  | 
7 | CN(C)c1ccc(Nc2nc(N)c(C(=O)c3ccccn3)s2)cc1 [I(19)] | 1600 nM | 58% |  |  | 16% | 4800 nM | 22000 nM |  |  |  |  |  |  |  |  |  | 
8 | Cc1nc2ccc(Nc3nc(N)c(C(=O)c4ccccc4[N+](=O)[O-])s3)cc2[nH]1 [A(6), [4-Amino-2-(2-methyl-1H-benzoimidazol-6-ylamino)-thiazol-5-yl]-(2-nitro-phenyl)-methanone] | 150 nM |  | 52 nM |  |  | 292 nM | 5000 nM | 15000 nM | 20000 nM | 30000 nM |  |  |  |  |  |  | 
9 | CN1CCN(c2ccc(Nc3nc(N)c(C(=O)c4c(F)cccc4F)s3)cc2)CC1=O [C(118), 4-{4-[4-Amino-5-(2,6-difluoro-benzoyl)-thiazol-2-ylamino]-phenyl}-1-methyl-piperazin-2-one] | 10.3 nM |  | 97 nM |  |  | 191 nM |  |  | 640 nM | 1400 nM |  | 940 nM | 1500 nM | 2400 nM | 5000 nM |  | 
10 | C[C@@H]1CN(c2ccc(Nc3nc(N)c(C(=O)c4c(F)cccc4F)s3)cc2)C[C@H](C)N1 [J(5), {4-Amino-2-[4-(cis-3,5-dimethyl-piperazin-1-yl)-phenylamino]-thiazol-5-yl}-(2,6-difluoro-phenyl)-methanone] | 6.3 nM |  | 760 nM |  |  | 331 nM |  |  | 700 nM | 1600 nM |  | 900 nM | 1500 nM | 1000 nM | 1800 nM |  | 
11 | Nc1nc(Nc2ccc3nc[nH]c3c2)sc1C(=O)c1c(Cl)cncc1Cl [C(63), [4-Amino-2-(1H-benzoimidazol-5-yl-amino)-thiazol-5-yl]-(3,5-dichloro-pyridin-4-yl)-methanone] | 17 nM |  | 133 nM |  |  | 200 nM |  |  | 12000 nM | 22000 nM |  | 9000 nM | 20000 nM | 16000 nM | > 25000 nM | 84% | 
12 | Nc1nc(Nc2cccnc2)sc1C(=O)c1ccccc1 [A(3), [4-Amino-2-(pyridin-3-ylamino)-thiazol-5-yl]-phenyl-methanone] | 2000 nM | 15% | 3500 nM |  | 41% | 6100 nM |  |  |  |  |  |  |  |  |  |  | 
13 | CN1CCN(c2ccc(Nc3nc(N)c(C(=O)c4c(Cl)cc(Br)c(N)c4Cl)s3)cc2)CC1 [C(96), (3-Amino-4-bromo-2,6-dichloro-phenyl)-{4-amino-2-[4-(4-methyl-piperazin-1-yl)-phenylamino]-thiazol-5-yl}-methanone] | 1.5 nM |  | 231 nM |  |  | 324 nM |  |  | 18000 nM | > 25000 nM |  | 4200 nM | 10000 nM | 8000 nM | 12000 nM |  | (82%)
14 | Nc1nc(Nc2ccc(S(N)(=O)=O)cc2)sc1C(=O)c1c(F)cccc1C(F)(F)F [C(99), 4-[4-Amino-5-(2-fluoro-6-trifluoromethyl-benzoyl)-thiazol-2-ylamino]-benzenesulfonamide] | 16.4 nM |  | 40 nM |  |  | 39.5 nM |  |  | 880 nM | 2700 nM |  | 1100 nM | 2900 nM | 4000 nM | 8000 nM |  | 
